Our source for the Ki values is patent US8580794B2 (AbbVie Inc., priority 2009, dated 2013).

This assay has as its target GST-Bc1-2 (Homo sapiens, UniProt P10415). The assay is described as follows: Time Resolved-Fluorescence Resonance Energy Transfer (TR-FRET) Bcl-2 binding assay with F-Bak peptide probe. As to conditions: GST-Bcl-2 1 nM, F-Bak probe 100 nM, Tb-anti-GST 1 nM; '<' = below limit of detection; read-out: TR-FRET Bcl-2 Binding Ki. (Time-resolved FRET reads energy transfer from a long-lived donor to a nearby acceptor.)

Sequence of GST-Bc1-2 (P10415 whole entry): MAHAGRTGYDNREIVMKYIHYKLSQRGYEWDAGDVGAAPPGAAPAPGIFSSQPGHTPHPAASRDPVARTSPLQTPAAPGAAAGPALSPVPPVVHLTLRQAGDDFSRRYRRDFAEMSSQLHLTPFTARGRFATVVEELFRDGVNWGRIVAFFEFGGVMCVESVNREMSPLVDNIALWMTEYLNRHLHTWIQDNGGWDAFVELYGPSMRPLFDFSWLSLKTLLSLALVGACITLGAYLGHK

In general, Ki refers to the dissociation constant of the complex between target and ligand, obtained from inhibition or displacement. For `CC1(C)CCC(CN2CCN(c3ccc(C(=O)NS(=O)(=O)c4ccc(NC[C@H]5CN(C6CC6)CCO5)c([N+](=O)[O-])c4)c(Oc4cnc5[nH]ccc5c4)c3)CC2)=C(c2ccc(Cl)cc2)C1` [Example 327, 4-(4-{[2-(4-chlorophenyl)-4,4-dimethylcyclohex-1-en-1-yl]methyl}piperazin-1-yl)-N-{[4-({[(2S)-4-cyclopropylmorpholin-2-yl]methyl}amino)-3-nitrophenyl]sulfonyl}-2-(1H-pyrrolo[2,3-b]pyridin-5-yloxy)benzamide], the Ki is below 0.01 nM. The result for `O=C(NS(=O)(=O)c1ccc(NCC2CCOCC2)c([N+](=O)[O-])c1)c1ccc(N2CCN(CC3=C(c4ccc(Cl)cc4)CC4(CC3)CC4)CC2)cc1Oc1cnc2[nH]ccc2c1` [Example 328, 4-(4-{[5-(4-chlorophenyl)spiro[2.5]oct-5-en-6-yl]methyl}piperazin-1-yl)-N-({3-nitro-4-[(tetrahydro-2H-pyran-4-ylmethyl)amino]phenyl}sulfonyl)-2-(1H-pyrrolo[2,3-b]pyridin-5-yloxy)benzamide] reads below 0.01 nM. To `CC1(C)CCC(CN2CCN(c3ccc(C(=O)NS(=O)(=O)c4cnc(OCC5CCC(N(C6CC6)C6COC6)CC5)c(Cl)c4)c(Oc4cnc5[nH]ccc5c4)c3)CC2)=C(c2ccc(Cl)cc2)C1` (stereo not drawn) [Example 329, N-{[5-chloro-6-({4-[cyclopropyl(oxetan-3-yl)amino]cyclohexyl}methoxy)pyridin-3-yl]sulfonyl}-4-(4-{[2-(4-chlorophenyl)-4,4-dimethylcyclohex-1-en-1-yl]methyl}piperazin-1-yl)-2-(1H-pyrrolo[2,3-b]pyridin-5-yloxy)benzamide] belongs 0.03 nM. The result for `O=C(NS(=O)(=O)c1ccc(NCC2CN(C3CC3)CCO2)c([N+](=O)[O-])c1)c1ccc(N2CCN(CC3=C(c4ccc(Cl)cc4)CC4(CC3)CC4)CC2)cc1Oc1cnc2[nH]ccc2c1` (stereo not drawn) [Example 330, 4-(4-{[5-(4-chlorophenyl)spiro[2.5]oct-5-en-6-yl]methyl}piperazin-1-yl)-N-[(4-{[(4-cyclopropylmorpholin-2-yl)methyl]amino}-3-nitrophenyl)sulfonyl]-2-(1H-pyrrolo[2,3-b]pyridin-5-yloxy)benzamide] reads below 0.01 nM. Regarding `CC1(C)CCC(CN2CCN(c3ccc(C(=O)NS(=O)(=O)c4ccc(OCC5CN(C6CC6)CCO5)c(Cl)c4)c(Oc4cnc5[nH]ccc5c4)c3)CC2)=C(c2ccc(Cl)cc2)C1` (stereo not drawn) [Example 331, N-({3-chloro-4-[(4-cyclopropylmorpholin-2-yl)methoxy]phenyl}sulfonyl)-4-(4-{[2-(4-chlorophenyl)-4,4-dimethylcyclohex-1-en-1-yl]methyl}piperazin-1-yl)-2-(1H-pyrrolo[2,3-b]pyridin-5-yloxy)benzamide], the Ki turned out to be 1.09 nM. To `CC1(C)CCC(CN2CCN(c3ccc(C(=O)NS(=O)(=O)c4ccc(NCC5CN(C6CC6)CCO5)c(Cl)c4)c(Oc4cnc5[nH]ccc5c4)c3)CC2)=C(c2ccc(Cl)cc2)C1` (stereo not drawn) [Example 332, N-[(3-chloro-4-{[(4-cyclopropylmorpholin-2-yl)methyl]amino}phenyl)sulfonyl]-4-(4-{[2-(4-chlorophenyl)-4,4-dimethylcyclohex-1-en-1-yl]methyl}piperazin-1-yl)-2-(1H-pyrrolo[2,3-b]pyridin-5-yloxy)benzamide] belongs 0.621 nM; to `CCN(C)C(=O)N1CCOC(CNc2ccc(S(=O)(=O)NC(=O)c3ccc(N4CCN(CC5=C(c6ccc(Cl)cc6)CC(C)(C)CC5)CC4)cc3Oc3cnc4[nH]ccc4c3)cc2Cl)C1` (stereo not drawn) [Example 333, 2-{[(2-chloro-4-{[4-(4-{[2-(4-chlorophenyl)-4,4-dimethylcyclohex-1-en-1-yl]methyl}piperazin-1-yl)-2-(1H-pyrrolo[2,3-b]pyridin-5-yloxy)benzoyl]sulfamoyl}phenyl)amino]methyl}-N-ethyl-N-methylmorpholine-4-carboxamide], 0.511 nM; to `CCN(C)C(=O)N1CCO[C@H](COc2ncc(S(=O)(=O)NC(=O)c3ccc(N4CCN(CC5=C(c6ccc(Cl)cc6)CC(C)(C)CC5)CC4)cc3Oc3cnc4[nH]ccc4c3)cc2Cl)C1` [Example 334, (2S)-2-{[(3-chloro-5-{[4-(4-{[2-(4-chlorophenyl)-4,4-dimethylcyclohex-1-en-1-yl]methyl}piperazin-1-yl)-2-(1H-pyrrolo[2,3-b]pyridin-5-yloxy)benzoyl]sulfamoyl}pyridin-2-yl)oxy]methyl}-N-ethyl-N-methylmorpholine-4-carboxamide], 0.572 nM. On to `CC1(C)CCC(CN2CCN(c3ccc(C(=O)NS(=O)(=O)c4cnc(NCC5CN(C6CC6)CCO5)c(Cl)c4)c(Oc4cnc5[nH]ccc5c4)c3)CC2)=C(c2ccc(Cl)cc2)C1` (stereo not drawn) [Example 335, N-[(5-chloro-6-{[(4-cyclopropylmorpholin-2-yl)methyl]amino}pyridin-3-yl)sulfonyl]-4-(4-{[2-(4-chlorophenyl)-4,4-dimethylcyclohex-1-en-1-yl]methyl}piperazin-1-yl)-2-(1H-pyrrolo[2,3-b]pyridin-5-yloxy)benzamide], for which the Ki was determined as 0.15 nM. To `CCN(C)C(=O)N1CCOC(CNc2ncc(S(=O)(=O)NC(=O)c3ccc(N4CCN(CC5=C(c6ccc(Cl)cc6)CC(C)(C)CC5)CC4)cc3Oc3cnc4[nH]ccc4c3)cc2Cl)C1` (stereo not drawn) [Example 336, 2-{[(3-chloro-5-{[4-(4-{[2-(4-chlorophenyl)-4,4-dimethylcyclohex-1-en-1-yl]methyl}piperazin-1-yl)-2-(1H-pyrrolo[2,3-b]pyridin-5-yloxy)benzoyl]sulfamoyl}pyridin-2-yl)amino]methyl}-N-ethyl-N-methylmorpholine-4-carboxamide] belongs 0.198 nM; to `CC1(C)CCC(CN2CCN(c3ccc(C(=O)NS(=O)(=O)c4ccc(NC5CCC(N(CCC#N)C6CC6)CC5)c([N+](=O)[O-])c4)c(Oc4cnc5[nH]ccc5c4)c3)CC2)=C(c2ccc(Cl)cc2)C1` (stereo not drawn) [Example 340, 4-(4-{[2-(4-chlorophenyl)-4,4-dimethylcyclohex-1-en-1-yl]methyl}piperazin-1-yl)-N-{[4-({4-[(2-cyanoethyl)(cyclopropyl)amino]cyclohexyl}amino)-3-nitrophenyl]sulfonyl}-2-(1H-pyrrolo[2,3-b]pyridin-5-yloxy)benzamide], below 0.01 nM. Turning to `CC1(C)CCC(CN2CCN(c3ccc(C(=O)NS(=O)(=O)c4cnc(OCC5CCc6nccn6C5)c(Cl)c4)c(Oc4cnc5[nH]ccc5c4)c3)CC2)=C(c2ccc(Cl)cc2)C1` (stereo not drawn) [Example 342, 4-(4-{[2-(4-chlorophenyl)-4,4-dimethylcyclohex-1-en-1-yl]methyl}piperazin-1-yl)-N-{[5-chloro-6-(5,6,7,8-tetrahydroimidazo[1,2-a]pyridin-6-ylmethoxy)pyridin-3-yl]sulfonyl}-2-(1H-pyrrolo[2,3-b]pyridin-5-yloxy)benzamide], the Ki is below 0.01 nM. On to `O=C(NS(=O)(=O)c1cnc(OCC2(F)CCN(C3COC3)CC2)c(Cl)c1)c1ccc(N2CCN(CC3=C(c4ccc(Cl)cc4)CC4(CC3)CC4)CC2)cc1Oc1cnc2[nH]ccc2c1` [Example 345, N-[(5-chloro-6-{[4-fluoro-1-(oxetan-3-yl)piperidin-4-yl]methoxy}pyridin-3-yl)sulfonyl]-4-(4-{[5-(4-chlorophenyl)spiro[2.5]oct-5-en-6-yl]methyl}piperazin-1-yl)-2-(1H-pyrrolo[2,3-b]pyridin-5-yloxy)benzamide], for which the Ki was below 0.01 nM. `CC1(C)CCC(CN2CCN(c3ccc(C(=O)NS(=O)(=O)c4ccc(NC5CCC(N6CCC(F)(F)C6)CC5)c([N+](=O)[O-])c4)c(Oc4cnc5[nH]ccc5c4)c3)CC2)=C(c2ccc(Cl)cc2)C1` (stereo not drawn) [Example 346, 4-(4-{[2-(4-chlorophenyl)-4,4-dimethylcyclohex-1-en-1-yl]methyl}piperazin-1-yl)-N-[(4-{[4-(3,3-difluoropyrrolidin-1-yl)cyclohexyl]amino}-3-nitrophenyl)sulfonyl]-2-(1H-pyrrolo[2,3-b]pyridin-5-yloxy)benzamide]: the Ki is 0.042 nM. The result for `CC1(C)CCC(CN2CCN(c3ccc(C(=O)NS(=O)(=O)c4ccc(NC5CCC(NC6CC6(F)F)CC5)c([N+](=O)[O-])c4)c(Oc4cnc5[nH]ccc5c4)c3)CC2)=C(c2ccc(Cl)cc2)C1` (stereo not drawn) [Example 349, 4-(4-{[2-(4-chlorophenyl)-4,4-dimethylcyclohex-1-en-1-yl]methyl}piperazin-1-yl)-N-{[4-({4-[(2,2-difluorocyclopropyl)amino]cyclohexyl}amino)-3-nitrophenyl]sulfonyl}-2-(1H-pyrrolo[2,3-b]pyridin-5-yloxy)benzamide] reads 0.023 nM. Take `CC1(C)CCC(CN2CCN(c3ccc(C(=O)NS(=O)(=O)c4ccc(OCC5CCC6(CC5)COC6)c([N+](=O)[O-])c4)c(Oc4cnc5[nH]ccc5c4)c3)CC2)=C(c2ccc(Cl)cc2)C1` [Example 351, 4-(4-{[2-(4-chlorophenyl)-4,4-dimethylcyclohex-1-en-1-yl]methyl}piperazin-1-yl)-N-{[3-nitro-4-(2-oxaspiro[3.5]non-7-ylmethoxy)phenyl]sulfonyl}-2-(1H-pyrrolo[2,3-b]pyridin-5-yloxy)benzamide]: the Ki is below 0.01 nM.

For the molecule `O=C(NS(=O)(=O)c1ccc(NCC2CCOCC2)c([N+](=O)[O-])c1)c1ccc(N2CCN(CC3=C(c4ccc(Cl)cc4)CCC(CF)(CF)C3)CC2)cc1Oc1cnc2[nH]ccc2c1` [Example 353, 4-(4-{[2-(4-chlorophenyl)-5,5-bis(fluoromethyl)cyclohex-1-en-1-yl]methyl}piperazin-1-yl)-N-({3-nitro-4-[(tetrahydro-2H-pyran-4-ylmethyl)amino]phenyl}sulfonyl)-2-(1H-pyrrolo[2,3-b]pyridin-5-yloxy)benzamide], the Ki was below 0.01 nM.

Consider `CC1(C)CCC(CN2CCN(c3ccc(C(=O)NS(=O)(=O)c4ccc(OCC5CN(C6CC6)CCO5)c([N+](=O)[O-])c4)c(Oc4cnc5[nH]ccc5c4)c3)CC2)=C(c2ccc(Cl)cc2)C1` (stereo not drawn) [Example 354, 4-(4-{[2-(4-chlorophenyl)-4,4-dimethylcyclohex-1-en-1-yl]methyl}piperazin-1-yl)-N-({4-[(4-cyclopropylmorpholin-2-yl)methoxy]-3-nitrophenyl}sulfonyl)-2-(1H-pyrrolo[2,3-b]pyridin-5-yloxy)benzamide], for which the Ki came to 0.01 nM.
